Measurements taken from ChEMBL document CHEMBL3885861, “Open TG-GATES”.

Species on record: Rattus norvegicus
Experiment: Open TG-GATES - Regimen: Single
Type: toxicity, organism-based, Sprague-Dawley
Design: regimen Single, gender Male, age 6 weeks
Conditions: in vivo, po, 0 mg/kg, route gavage, dose level Control; for KIDNEY_L / KIDNEY_R / KIDNEY_TOTAL: tissue Kidney; for LIVER: tissue Liver; for ALP / ALT / AST / BUN / CRE / Ca / DBIL / GLC / IP / K / LDH / Na / PL / RALB / TBIL / TC / TP / gamma-GTP / TG: tissue Plasma

SMILES: O=C(O)c1cn(C2CC2)c2cc(N3CCNCC3)c(F)cc2c1=O [CIPROFLOXACIN]
- TERMINAL_BW (3 h): 180.9 g
- Bas (3 h, tissue Blood): 0%
- Eos (3 h, tissue Blood): 0.6%
- Fbg (3 h, tissue Blood): 202.2 mg/dL
- Hb (3 h, tissue Blood): 13 g/dL
- MCH (3 h, tissue Blood): 21.8 pg
- MCV (3 h, tissue Blood): 65.5 fL
- Mono (3 h, tissue Blood): 6%
- PT (3 h, tissue Blood): 12.5 s
- Plat (3 h, tissue Blood): 103.5 x10_4/uL
- RBC (3 h, tissue Blood): 598.8 x10_4/ul
- Ret (3 h, tissue Blood): 9.9%
- WBC (3 h, tissue Blood): 128.2 x10_2/uL
- KIDNEY_L (3 h): 0.8 g
- KIDNEY_R (3 h): 0.9 g
- KIDNEY_TOTAL (3 h): 1.7 g
- LIVER (3 h): 8.3 g
- ALP (3 h): 1050.6 IU/L
- ALT (3 h): 38.4 IU/L
- AST (3 h): 70.6 IU/L
- BUN (3 h): 13.8 mg/dL
- CRE (3 h): 0.4 mg/dL
- Ca (3 h): 10.8 mg/dL
- DBIL (3 h): 0.008 mg/dL
- GLC (3 h): 186.6 mg/dL
- IP (3 h): 9.5 mg/dL
- K (3 h): 4.9 meq/L
- LDH (3 h): 92.6 IU/L
- Na (3 h): 138.2 meq/L
- PL (3 h): 130.8 mg/dL
- RALB (3 h): 3.8 g/dL
- TBIL (3 h): 0.4 mg/dL
- TC (3 h): 73.6 mg/dL
- TP (3 h): 5.4 g/dL
- gamma-GTP (3 h): 1.8 IU/L
- TERMINAL_BW (6 h): 182.4 g
- Bas (6 h, tissue Blood): 0%
- Eos (6 h, tissue Blood): 0.6%
- Fbg (6 h, tissue Blood): 211 mg/dL
- Hb (6 h, tissue Blood): 12.6 g/dL
- Lym (6 h, tissue Blood): 77%
- MCH (6 h, tissue Blood): 21.8 pg
- MCV (6 h, tissue Blood): 66.3 fL
- Mono (6 h, tissue Blood): 6.8%
- Neu (6 h, tissue Blood): 15.6%
- PT (6 h, tissue Blood): 12.5 s
- Plat (6 h, tissue Blood): 103 x10_4/uL
- RBC (6 h, tissue Blood): 579 x10_4/ul
- Ret (6 h, tissue Blood): 10.8%
- WBC (6 h, tissue Blood): 125 x10_2/uL
- KIDNEY_L (6 h): 0.9 g
- KIDNEY_R (6 h): 0.9 g
- KIDNEY_TOTAL (6 h): 1.8 g
- LIVER (6 h): 8.5 g
- ALP (6 h): 839.4 IU/L
- ALT (6 h): 36.6 IU/L
- BUN (6 h): 10.4 mg/dL
- CRE (6 h): 0.5 mg/dL
- DBIL (6 h): 0.024 mg/dL
- GLC (6 h): 186.4 mg/dL
- IP (6 h): 9.9 mg/dL
- K (6 h): 5.1 meq/L
- LDH (6 h): 103.2 IU/L
- Na (6 h): 138.2 meq/L
- PL (6 h): 136 mg/dL
- RALB (6 h): 3.7 g/dL
- TBIL (6 h): 0.4 mg/dL
- TC (6 h): 80.6 mg/dL
- TG (6 h): 42.2 mg/dL
- TP (6 h): 5.5 g/dL
- gamma-GTP (6 h): 1.4 IU/L
- TERMINAL_BW (9 h): 177.8 g
- APTT (9 h, tissue Blood): 17 s
- Bas (9 h, tissue Blood): 0%
- Eos (9 h, tissue Blood): 0.4%
- Fbg (9 h, tissue Blood): 213.4 mg/dL
- Hb (9 h, tissue Blood): 12.4 g/dL
- Ht (9 h, tissue Blood): 37.5%
- Lym (9 h, tissue Blood): 82.6%
- MCH (9 h, tissue Blood): 21.7 pg
- MCHC (9 h, tissue Blood): 33.1%
- MCV (9 h, tissue Blood): 65.6 fL
- Mono (9 h, tissue Blood): 6.8%
- Neu (9 h, tissue Blood): 10%
- PT (9 h, tissue Blood): 11.7 s
- Plat (9 h, tissue Blood): 116.2 x10_4/uL
- RBC (9 h, tissue Blood): 572.4 x10_4/ul
- Ret (9 h, tissue Blood): 10.6%
- WBC (9 h, tissue Blood): 115.5 x10_2/uL
- KIDNEY_L (9 h): 0.8 g
- KIDNEY_R (9 h): 0.8 g
- KIDNEY_TOTAL (9 h): 1.7 g
- LIVER (9 h): 7.5 g
- ALP (9 h): 766 IU/L
- ALT (9 h): 32.4 IU/L
- AST (9 h): 68.4 IU/L
- BUN (9 h): 10.6 mg/dL
- CRE (9 h): 0.5 mg/dL
- Ca (9 h): 10.9 mg/dL
- DBIL (9 h): 0.056 mg/dL
- GLC (9 h): 193 mg/dL
- IP (9 h): 10.9 mg/dL
- K (9 h): 4.9 meq/L
- LDH (9 h): 92.4 IU/L
- Na (9 h): 139.2 meq/L
- PL (9 h): 120.4 mg/dL
- RALB (9 h): 3.8 g/dL
- TBIL (9 h): 0.3 mg/dL
- TC (9 h): 71.8 mg/dL
- TG (9 h): 29 mg/dL
- TP (9 h): 5.5 g/dL
- gamma-GTP (9 h): 1.4 IU/L
- TERMINAL_BW (24 h): 194.5 g
- APTT (24 h, tissue Blood): 16.4 s
- Bas (24 h, tissue Blood): 0%
- Eos (24 h, tissue Blood): 1%
- Fbg (24 h, tissue Blood): 209.2 mg/dL
- Hb (24 h, tissue Blood): 13.1 g/dL
- Lym (24 h, tissue Blood): 80%
- MCH (24 h, tissue Blood): 22 pg
- MCHC (24 h, tissue Blood): 33.4%
- MCV (24 h, tissue Blood): 65.8 fL
- Mono (24 h, tissue Blood): 7.2%
- Plat (24 h, tissue Blood): 103.8 x10_4/uL
- RBC (24 h, tissue Blood): 598.2 x10_4/ul
- Ret (24 h, tissue Blood): 9.7%
- WBC (24 h, tissue Blood): 132.8 x10_2/uL
- KIDNEY_L (24 h): 0.9 g
- KIDNEY_R (24 h): 0.9 g
- KIDNEY_TOTAL (24 h): 1.8 g
- LIVER (24 h): 9.8 g
- ALP (24 h): 1038.8 IU/L
- ALT (24 h): 47 IU/L
- AST (24 h): 74.8 IU/L
- BUN (24 h): 17.4 mg/dL
- CRE (24 h): 0.5 mg/dL
- Ca (24 h): 11.3 mg/dL
- DBIL (24 h): 0.074 mg/dL
- GLC (24 h): 187.2 mg/dL
- IP (24 h): 8.3 mg/dL
- K (24 h): 4.7 meq/L
- LDH (24 h): 96.8 IU/L
- Na (24 h): 138.8 meq/L
- PL (24 h): 157.2 mg/dL
- RALB (24 h): 4 g/dL
- TBIL (24 h): 0.3 mg/dL
- TC (24 h): 89 mg/dL
- TG (24 h): 89.4 mg/dL
- TP (24 h): 5.7 g/dL
- gamma-GTP (24 h): 1.2 IU/L
